Results: patent EP2058306A1, “Heteroaryl-substituted 2-pyridinyl-methylamine derivatives” (SCHWARZ PHARMA AG, priority 2007, dated 2009)
pEC50, pKi: −log10 of the molar value. Where two headings read alike, the source gives them in different places.

Legend:
human D2long, D2short = human D2long, D2short (Homo sapiens, UniProt P14416); experiment: biochemical; format: binding; conditions: CHO cell membranes, [3H]spiperone; mean of two to five experiments in triplicate; read-out: Ki D2
Description: (§1) These experiments have been done according to methods which are described in literature (Hübner, H. et al., J. Med. Chem. (2000), 43, 7562). For the determination of binding affinity to the receptors of the dopamine D2 family membranes were established carrying the human D2long, D2short, D3 or D4.4 receptor subtype stably expressed in Chinese hamster ovary cell lines. In principle, the binding experiments started when incubating an appropriate amount of membrane with the radioligand [^3H]spiperone and the particular test compounds used in a wide range of different concentrations from subnanomolar up to micromolar ones.

human D3 = human D3 (Homo sapiens, UniProt P35462); experiment: radioligand binding assay, dopamine D3 receptor, [3H]spiperone; conditions: CHO cell membranes, mean of two to five experiments in triplicate, read-out: Ki D3
Chain of human D3 (P35462 whole entry): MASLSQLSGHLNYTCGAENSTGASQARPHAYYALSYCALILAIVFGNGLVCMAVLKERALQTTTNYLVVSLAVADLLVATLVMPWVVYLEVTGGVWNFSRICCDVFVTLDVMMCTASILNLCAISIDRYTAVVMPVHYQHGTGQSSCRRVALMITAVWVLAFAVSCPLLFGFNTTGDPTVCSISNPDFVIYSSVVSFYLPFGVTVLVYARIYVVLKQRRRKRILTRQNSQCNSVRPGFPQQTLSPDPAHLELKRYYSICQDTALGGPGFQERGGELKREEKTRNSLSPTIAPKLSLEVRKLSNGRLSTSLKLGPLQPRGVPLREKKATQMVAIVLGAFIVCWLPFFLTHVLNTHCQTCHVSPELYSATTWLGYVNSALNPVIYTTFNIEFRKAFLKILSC
Description: as §1

5-HT1A = biological target: T1, 5-HT1A (Sus scrofa, UniProt A0A4X1UTF5); experiment: radioligand binding assay, serotonin 5-HT1A receptor, [3H]WAY 100635; conditions: porcine cortex membranes, mean of two to five experiments in triplicate, read-out: Ki 5-HT1a
T1 construct: membrane preparations from porcine cortex; from tissue; host or cells: porcine cortex
T1 sequence (A0A4X1UTF5 1-422): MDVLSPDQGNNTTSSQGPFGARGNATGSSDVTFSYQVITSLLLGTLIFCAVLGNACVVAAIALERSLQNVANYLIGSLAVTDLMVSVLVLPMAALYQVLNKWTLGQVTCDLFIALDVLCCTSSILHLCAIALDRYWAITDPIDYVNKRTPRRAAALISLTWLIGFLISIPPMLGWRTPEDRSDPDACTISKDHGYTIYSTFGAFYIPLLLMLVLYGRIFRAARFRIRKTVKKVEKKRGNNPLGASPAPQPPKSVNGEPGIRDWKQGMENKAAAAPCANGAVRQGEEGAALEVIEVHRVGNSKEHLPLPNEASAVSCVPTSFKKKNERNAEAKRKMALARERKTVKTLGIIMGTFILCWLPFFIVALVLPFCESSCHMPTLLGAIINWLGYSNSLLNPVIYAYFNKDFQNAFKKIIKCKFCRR
Description: (§2) The investigation of receptor binding to the serotonin and adrenergic receptors was done according to a published procedure (Heindl, C. et al., Tetrahedron: Asymmetry (2003), 14, 3141-3152). In detail, for the determination of the binding properties to serotonin receptors membrane preparations from porcine cortex was incubated with the 5-HT1A selective radioligand [^3H]WAY 100635 or with the 5-HT2 selective compound [^3H]ketanserin. The measurement of alpha-1 and alpha-2 receptor binding was achieved when utilizing porcine cortical membranes and the selective radioligands [^3H]prazosin (for alpha-1) and [^3H]RX821002 in an assay similar to that described above.
(§3) The results of the binding experiments are summarized in Table 1 as mean values of two to five individual experiments each done in triplicate and expressed as Ki values in nM.

human D4.4 = biological target: T2, human D4.4 (Homo sapiens, UniProt P21917); experiment: radioligand binding assay, dopamine D4.4 receptor, [3H]spiperone; conditions: CHO cell membranes, mean of two to five experiments in triplicate, read-out: Ki D4.4
T2 sequence (P21917 1-419): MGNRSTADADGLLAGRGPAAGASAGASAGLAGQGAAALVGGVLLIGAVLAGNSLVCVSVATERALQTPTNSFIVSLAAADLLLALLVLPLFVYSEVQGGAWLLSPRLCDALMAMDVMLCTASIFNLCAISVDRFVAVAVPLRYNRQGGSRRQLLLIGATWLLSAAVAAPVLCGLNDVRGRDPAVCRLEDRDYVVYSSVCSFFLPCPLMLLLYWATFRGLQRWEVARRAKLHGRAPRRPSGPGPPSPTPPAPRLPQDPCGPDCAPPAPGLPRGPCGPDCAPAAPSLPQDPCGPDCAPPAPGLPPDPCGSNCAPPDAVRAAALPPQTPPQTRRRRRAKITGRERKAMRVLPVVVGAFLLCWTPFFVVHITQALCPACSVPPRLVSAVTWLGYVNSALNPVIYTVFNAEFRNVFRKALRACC
From the text: as §1, with “Biological activity of the compounds has been determined in radioligand binding assays. These” for “These”, “ones. In the same way, binding affinities of the test compounds to the dopamine D1 receptor were determined when using native membrane preparations from porcine striatum and the D1 selective radioligand [^3H]SCH 23390.” for “ones.”
as §3

dopamine D1 receptor = biological target: T3, dopamine D1 receptor (Sus scrofa, UniProt P50130); experiment: radioligand binding assay, dopamine D1 receptor, [3H]SCH 23390; conditions: porcine striatum membranes, mean of two to five experiments in triplicate, read-out: Ki D1
T3 construct: native membrane preparations from porcine striatum; from tissue; host or cells: porcine striatum
T3 sequence (P50130 whole entry): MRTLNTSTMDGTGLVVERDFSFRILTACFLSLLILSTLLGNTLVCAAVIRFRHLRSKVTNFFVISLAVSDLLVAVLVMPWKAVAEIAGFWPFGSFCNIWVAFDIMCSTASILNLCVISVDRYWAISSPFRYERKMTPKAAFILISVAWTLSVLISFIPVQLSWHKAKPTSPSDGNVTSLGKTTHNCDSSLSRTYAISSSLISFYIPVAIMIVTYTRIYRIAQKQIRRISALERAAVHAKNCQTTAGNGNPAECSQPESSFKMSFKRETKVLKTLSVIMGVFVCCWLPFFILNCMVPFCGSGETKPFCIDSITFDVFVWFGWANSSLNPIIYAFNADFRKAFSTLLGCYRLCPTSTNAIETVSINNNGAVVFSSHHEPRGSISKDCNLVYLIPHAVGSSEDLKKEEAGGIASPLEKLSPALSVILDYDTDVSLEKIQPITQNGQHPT
From the text: as §1, with “Biological activity of the compounds has been determined in radioligand binding assays. These” for “These”, “ones. In the same way, binding affinities of the test compounds to the dopamine D1 receptor were determined when using native membrane preparations from porcine striatum and the D1 selective radioligand [^3H]SCH 23390.” for “ones.”
as §3

human 5-HT1A receptor = biological target: T4, human 5-HT1A receptor (Homo sapiens, UniProt P08908); experiment: [35S]GTPγS assay of functional activity at the 5-HT1A receptor; format: biochemical; conditions: membranes from CHO cells expressing human 5-HT1A receptor; for 5-HT1A stimulated [35S]GTPγS binding intrinsic effect: % activity of serotonin; for pEC50: read-out: 5-HT1A stimulated [35S]GTPγS binding EC50 value
T4 construct: expressed in transfected cells
T4 sequence (P08908 1-422): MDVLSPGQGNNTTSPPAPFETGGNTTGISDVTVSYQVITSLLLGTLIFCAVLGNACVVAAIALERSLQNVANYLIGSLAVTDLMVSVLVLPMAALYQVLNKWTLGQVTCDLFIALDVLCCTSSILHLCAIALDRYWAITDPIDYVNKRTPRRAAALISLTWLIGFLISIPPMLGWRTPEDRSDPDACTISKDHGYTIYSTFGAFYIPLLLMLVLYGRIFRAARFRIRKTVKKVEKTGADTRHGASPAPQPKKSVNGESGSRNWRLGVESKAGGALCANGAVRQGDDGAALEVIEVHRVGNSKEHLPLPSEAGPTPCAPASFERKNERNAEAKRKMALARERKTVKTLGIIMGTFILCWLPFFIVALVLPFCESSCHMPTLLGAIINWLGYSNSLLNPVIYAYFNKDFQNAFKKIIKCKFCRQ
Description: In detail, membranes from CHO (Chinese hamster ovary) cells stably expressing the human 5-HT1A receptor were stimulated with an increasing concentration of test compounds used in a range of subnanomolar to micromolar concentrations in the presence of radioactive [^35S]GTPγ. The amount of bound radioactivity which indicates the amount of stimulation of the receptor was determined after transferring the membranes to filters by scintillation counting. Dose response correlations could be derived and the particular stimulation of the receptor was compared to the maximum effect of the reference compound and physiological ligand serotonin.
Table 2: Intrinsic activities of the compounds of this invention at the serotonin 5-HT1A receptor determined in a [35S]GTPγS assay

alpha-1 = experiment: radioligand binding assay, adrenergic alpha-1 receptor, [3H]prazosin; conditions: porcine cortical membranes, mean of two to five experiments in triplicate, read-out: Ki alpha1
Description: as §2, §3

5-HT2 = biological target: T5, 5-HT2 (Sus scrofa, UniProt P50129); experiment: radioligand binding assay, serotonin 5-HT2 receptor, [3H]ketanserin; parameters: species or system porcine
T5 construct: membrane preparations from porcine cortex; from tissue; host or cells: porcine cortex
T5 sequence (P50129 whole entry): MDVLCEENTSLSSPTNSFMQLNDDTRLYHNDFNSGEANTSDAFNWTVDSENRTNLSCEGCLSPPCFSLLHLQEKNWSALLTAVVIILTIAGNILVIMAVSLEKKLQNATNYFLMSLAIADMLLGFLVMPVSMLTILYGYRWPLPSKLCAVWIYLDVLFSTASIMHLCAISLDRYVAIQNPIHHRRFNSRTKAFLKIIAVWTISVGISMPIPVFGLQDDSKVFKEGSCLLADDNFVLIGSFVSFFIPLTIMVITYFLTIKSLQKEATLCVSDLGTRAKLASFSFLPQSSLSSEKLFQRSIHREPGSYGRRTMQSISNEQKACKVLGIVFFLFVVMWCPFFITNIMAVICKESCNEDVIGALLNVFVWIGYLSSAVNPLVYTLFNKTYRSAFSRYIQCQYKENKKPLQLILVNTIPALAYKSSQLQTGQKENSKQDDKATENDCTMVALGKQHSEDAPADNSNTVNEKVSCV

[1] = cited from Maurel et al, reference (14); cited from earlier work
[2] = porcine cortex membranes, [3H]ketanserin, mean of two to five experiments in triplicate, read-out: Ki 5-HT2

Chain of human D2long, D2short (P14416 whole entry): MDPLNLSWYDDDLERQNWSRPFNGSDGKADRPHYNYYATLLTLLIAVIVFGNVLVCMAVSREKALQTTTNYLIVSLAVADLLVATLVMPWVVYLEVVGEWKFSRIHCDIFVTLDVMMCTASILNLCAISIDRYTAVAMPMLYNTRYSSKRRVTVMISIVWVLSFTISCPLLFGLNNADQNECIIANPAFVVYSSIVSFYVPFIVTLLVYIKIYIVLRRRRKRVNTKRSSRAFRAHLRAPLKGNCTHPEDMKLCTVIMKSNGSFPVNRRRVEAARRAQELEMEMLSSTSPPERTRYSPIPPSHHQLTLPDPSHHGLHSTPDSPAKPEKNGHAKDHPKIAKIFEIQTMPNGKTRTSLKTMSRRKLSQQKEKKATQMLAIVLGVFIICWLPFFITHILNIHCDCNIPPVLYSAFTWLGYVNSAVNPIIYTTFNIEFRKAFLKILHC

SMILES | 5-HT1A stimulated [35S]GTPγS binding intrinsic effect (human 5-HT1A receptor) | pKi (5-HT2) | pKi (human D2long, D2short) | pKi (human D3) | pKi (5-HT1A) | pKi (human D4.4) | pKi (dopamine D1 receptor) | pEC50 (human 5-HT1A receptor) | pKi (alpha-1) | pKi (5-HT2; [2]) | half-life elimination from plasma [1] [h]
Cc1ccc(CNCC2(F)CCN(C(=O)c3sccc3Cl)CC2)nc1 [Example E3, 3-Chlorothien-2-yl-[4-fluoro-4-[[(5-methylpyridin-2-ylmethyl)amino]methyl]-piperidin-1-yl]-methanone] | D (D=full agonist (>75%)) |  | < 5.30 | < 5.30 | > 7.30 | 5.30 to 6.30 | < 5.30 | > 7.30 | 5.30 to 6.30 | < 5.30 | 
Cc1ccc(CNCC2(F)CCN(C(=O)c3ccc(Cl)s3)CC2)nc1 [Example E4, 5-Chlorothien-2-yl-[4-fluoro-4-[[(5-methylpyridin-2-ylmethyl)amino]methyl]-piperidin-1-yl]-methanone] | D (D=full agonist (>75%)) |  | < 5.30 | < 5.30 | > 7.30 | 5.30 to 6.30 | < 5.30 | > 7.30 | 5.30 to 6.30 | < 5.30 | 
Cc1ccc(CNCC2(F)CCN(C(=O)c3cc(Br)cs3)CC2)nc1 [Example E6, 4-Bromothien-2-yl-[4-fluoro-4-[[(5-methylpyridin-2-ylmethyl)amino]methyl]-piperidin-1-yl]-methanone] | D (D=full agonist (>75%)) |  | < 5.30 | < 5.30 | > 7.30 | 5.30 to 6.30 | < 5.30 | > 7.30 | 5.30 to 6.30 | < 5.30 | 
Cc1ccc(CNCC2(F)CCN(C(=O)c3sccc3C)CC2)nc1 [Example E9, [4-Fluoro-4-[[(5-methylpyridin-2-ylmethyl)amino]methyl]piperidin-1-yl]-3-methylthien-2-yl-methanone] | D (D=full agonist (>75%)) |  | < 5.30 | < 5.30 | > 7.30 | < 5.30 | < 5.30 | > 7.30 | < 5.30 | < 5.30 | 
Cc1ccc(CNCC2(F)CCN(C(=O)c3cc(C)cs3)CC2)nc1 [Example E10, [4-Fluoro-4-[[(5-methylpyridin-2-ylmethyl)amino]methyl]piparidin-1-yl]-4-methylthien-2-yl-mothanone] | D (D=full agonist (>75%)) | < 5.30 | < 5.30 | < 5.30 | > 7.30 | 5.30 to 6.30 | < 5.30 | > 7.30 | 5.30 to 6.30 |  | 
Cc1ccc(CNCC2(F)CCN(C(=O)c3ccsc3)CC2)nc1 [Example E18, [4-Fluoro-4-[[(5-methylpyridin-2-ylmethyl)amino]methyl]piperidin-1-yl]-thien-3-yl-methanone] | D (D=full agonist (>75%)) |  | < 5.30 | < 5.30 | > 7.30 | < 5.30 | < 5.30 | > 7.30 | < 5.30 | < 5.30 | 
Cc1ccc(CNCC2(F)CCN(C(=O)c3ccc(F)c(Cl)c3)CC2)nc1 [Example F13640, reference compound] | D (D=full agonist (>75%)) |  |  |  |  |  |  |  |  |  | 35

Second part, led by results:

5-HT1A stimulated [35S]GTPγS binding intrinsic effect (human 5-HT1A receptor) | pKi (5-HT2) | SMILES | pKi (human D2long, D2short) | pKi (human D3) | pKi (5-HT1A) | pKi (human D4.4) | pKi (dopamine D1 receptor) | pEC50 (human 5-HT1A receptor) | pKi (alpha-1) | pKi (5-HT2; [2]) | half-life elimination from plasma [1] [h]
D (D=full agonist (>75%)) |  | Cc1ccc(CNCC2(F)CCN(C(=O)c3cccs3)CC2)nc1 [Example E1] | < 5.30 | < 5.30 | > 7.30 | < 5.30 | < 5.30 | > 7.30 | < 5.30 | < 5.30 | 
D (D=full agonist (>75%)) | < 5.30 | Cc1ccc(CNCC2(F)CCN(C(=O)c3sccc3Br)CC2)nc1 [Example E5, 3-Bromothien-2-yl-[4-fluoro-4-[[(5-mothylpyridin-2-ylmethyl)amino]mothyl]-piperidin-1-yl]-methanone] | < 5.30 | < 5.30 | > 7.30 | 5.30 to 6.30 | < 5.30 | > 7.30 | 5.30 to 6.30 |  | 
D (D=full agonist (>75%)) | < 5.30 | Cc1ccc(CNCC2(F)CCN(C(=O)c3ccc(Br)s3)CC2)nc1 [Example E7, 5-Bromothion-2-yl-[4-fluoro-4-[[(5-mothylpyridin-2-ylmethyl)amino]methyl]-piperidin-1-yl]-methanone] | < 5.30 | < 5.30 | > 7.30 | 5.30 to 6.30 | < 5.30 | > 7.30 | 5.30 to 6.30 |  | 
D (D=full agonist (>75%)) | < 5.30 | Cc1ccc(CNCC2(F)CCN(C(=O)c3ccc(C)s3)CC2)nc1 [Example E11, [4-Fluoro-4-[[(5-methylpyridin-2-ylmethyl)amino]methyl]piperidin-1-yl]-5-mothylthiophon-2-yl-mothanone] | < 5.30 | < 5.30 | > 7.30 | 5.30 to 6.30 | < 5.30 | > 7.30 | < 5.30 |  | 
